In patent US8540966B2, “Contrast agents endowed with high relaxivity” (Bracco Imaging S.p.A., priority 2004, dated 2013):

What was measured:
[1] = Relaxivity determination (r1p) at 20 MHz, 298K, pH 7; assay type: physicochemical
Method: As far as the relaxation enhancement property is concerned, a paramagnetic Gd(III) complex is characterized by its relaxivity (r1p) which represents the increase of the proton relaxation rate of an aqueous solution of the Gd(III) complex in comparison to the proton relaxation rate of neat water (R1°). The relaxivity is usually measured at 298K and 20 MHz (0.5 T).
In order to best evaluate the relaxivity properties and the parameters affecting the relaxivity of the agents of the invention, some comparative tests have been performed. In a first experiment, the relaxivity of a number of Gd-based chelated compounds having different molecular weight, all derived from the following [Gd(DTPA-monophosphonate)]^3− basic backbone structure (r1p at 20 MHz and 298K: 6.1 mM^−1 s^−1) of formula
Tested compounds include the Gd-complex of the chelating compounds 1b and 2b of the invention (hereinafter Gd-1b and Gd-2b) as well as a number of different derivatives of the aforementioned backbone moiety selected in order to cover a range of molecular weights of up to about 1800 Dalton. The relaxivity of all of the tested compounds were measured at 298K and 20 MHz and pH 7. The obtained values, listed in table 5 below (together with the structure of the compounds) have also been plotted against the MW of the complexes (see FIG. 1).
A second experiment was performed to test the relaxivity of different compounds of the invention, marketed NSA, known LDA and other systems, all containing one coordinated water molecule (q=1). The data were registered at 298K and 20 MHz and pH=7, and plotted against their corresponding MW. Relaxivity data relating to LDA P760 and P792 (LDA contrast agents) are based on literature cited below.
(§1) Conversely, the relaxivity improvement shown by the blood pool agent rapidly falls dawn over the same range of magnetic field strength. In addition to the above, please find below as per table 7, other relaxivity values, measured as above indicated, for some other representative compounds of the invention.

[2] = 1/T1 NMRD profiles: relaxivity over a range of magnetic field strength; assay type: physicochemical; settings: from 0.2 to 3 MHz; 25° C., 1 mM aqueous solution (FIG. 6)
Method: As an example, the relaxivity profile of the gadolinium complex of the chelating ligand of the invention 2b (hereinafter referred to as Gd-2b), in the above magnetic field range, has been compared with that of a marketed NSA, i.e. Magnevist®, and that of a blood pool agent, i.e. the macromolecular adduct between Gd-DTPA(BOM)3 and BSA (Bovine Serum Albumin) (FIG. 6).
The corresponding profile for the above blood pool agent is quite different.
A further test was performed in which the relaxivity values r1p, shown by the compounds of the invention as measured at 20 MHz and 298K, were plotted against the molecular reorientational values τR of the same compounds. The stability of the relaxivity properties shown by the compounds of the invention was tested. In a first experiment, the 1/T1 NMRD profiles for some compounds of the invention were acquired over a range of magnetic field strengths ranging from 0.01 to 130 MHz. […]
as §1

[3] = 298K, 20 MHz, pH 7, q=1 Gd complexes derived from the DTPA-monophosphonate backbone (Table 5)
[4] = 298K, 20 MHz, pH=7, q=1 complexes (Table 6)
[5] = measured as above indicated: 298K, 20 MHz (Table 7)

With `O=C(O)CN(CCN(CCN(CC(=O)O)[C@@H](Cc1ccccc1)C(=O)O)CP(=O)(O)O)[C@@H](Cc1ccccc1)C(=O)O` [B 22606] the “R1p (relaxivity)” value [1, 3] was 7.7 mM⁻¹ s⁻¹.
For `O=C(O)CN(CCN(CCN(CC(=O)O)[C@@H](COCc1ccccc1)C(=O)O)CP(=O)(O)O)[C@@H](COCc1ccccc1)C(=O)O` [B 22666], the “R1p (relaxivity)” value [1, 3] was 7.9 mM⁻¹ s⁻¹.
With `O=C(O)CN(CCN(CCN(CC(=O)O)[C@@H](Cc1c[nH]c2ccccc12)C(=O)O)CP(=O)(O)O)C(Cc1c[nH]c2ccccc12)C(=O)O` (stereo partly drawn) [B 22836] the “R1p (relaxivity)” value [1, 3] was 7.9 mM⁻¹ s⁻¹.
In the case of `O=C(O)CN1CCN(CC(=O)O)CCN(C(COCc2ccccc2)C(=O)O)CCN(CC(=O)O)CC1` (stereo not drawn) [Compound B19106], the “R1p (relaxivity)” value [1, 4] is reported as 5.5 mM⁻¹ s⁻¹.
In the case of `O=C(O)CN1CCN(C(COCc2ccccc2)C(=O)O)CCN(CC(=O)O)CCN(C(COCc2ccccc2)C(=O)O)CC1` (stereo not drawn) [Compound B19236], the “R1p (relaxivity)” value [1, 4] is reported as 6.5 mM⁻¹ s⁻¹.
In the case of `O=C(O)CN1CCN(C(COCc2ccccc2)C(=O)O)CCN(C(COCc2ccccc2)C(=O)O)CCN(C(COCc2ccccc2)C(=O)O)CC1` (stereo not drawn) [Compound B19406], the “R1p (relaxivity)” value [1, 4] is reported as 7.5 mM⁻¹ s⁻¹.
With `O=C(O)CCC(C(=O)O)N1CCN(Cc2cccc(C(=O)NCC(CNC(=O)C(O)C(O)C(O)C(O)CO)(CNC(=O)C(O)C(O)C(O)C(O)CO)CNC(=O)C(O)C(O)C(O)C(O)CO)c2)CCN(C(CCC(=O)O)C(=O)O)CCN(C(CCC(=O)O)C(=O)O)CC1` (stereo not drawn) [Gd-1d] the “R1p (relaxivity)” value [1, 5] was 24 mM⁻¹ s⁻¹.
With `O=C(CC[C@@H](C(=O)O)N1CCN([C@@H](CCC(=O)NC(COC2OC(CO)C(O)C(O)C2O)(COC2OC(CO)C(O)C(O)C2O)COC2OC(CO)C(O)C(O)C2O)C(=O)O)CCN([C@@H](CCC(=O)NC(COC2OC(CO)C(O)C(O)C2O)(COC2OC(CO)C(O)C(O)C2O)COC2OC(CO)C(O)C(O)C2O)C(=O)O)CCN([C@@H](CCC(=O)NC(COC2OC(CO)C(O)C(O)C2O)(COC2OC(CO)C(O)C(O)C2O)COC2OC(CO)C(O)C(O)C2O)C(=O)O)CC1)NC(COC1OC(CO)C(O)C(O)C1O)(COC1OC(CO)C(O)C(O)C1O)COC1OC(CO)C(O)C(O)C1O` (stereo partly drawn) [Gd-7c] the “R1p (relaxivity)” value [1, 5] was 20.4 mM⁻¹ s⁻¹.
In the case of `CC1(N(CC(=O)O)CC(=O)O)CN(C(CCC(=O)N(CCN(CCC(=O)NC(CO)(CO)CO)CCC(=O)NC(CO)(CO)CO)CCN(CCC(=O)NC(CO)(CO)CO)CCC(=O)NC(CO)(CO)CO)C(=O)O)CCN(C(CCC(=O)N(CCN(CCC(=O)NC(CO)(CO)CO)CCC(=O)NC(CO)(CO)CO)CCN(CCC(=O)NC(CO)(CO)CO)CCC(=O)NC(CO)(CO)CO)C(=O)O)C1` (stereo not drawn) [Gd-15a], the “R1p (relaxivity)” value [1, 5] is reported as 16.7 mM⁻¹ s⁻¹.
For `O=C(O)CN1CCN(CC(=O)O)CCN(CC(=O)O)CCN(CC(=O)O)CC1` [Gd-DOTA], the “R1p (relaxivity)” value [1, 4] was 4.7 mM⁻¹ s⁻¹.
In the case of `O=C(O)CN(CCN(CC(=O)O)CC(=O)O)CCN(CC(=O)O)CC(=O)O` [Gd-DTPA], the “R1p (relaxivity)” value [1, 4] is reported as 4.7 mM⁻¹ s⁻¹.
In the case of Gd-DTPA, the “relaxivity profile versus field strength” value [2] is reported as “quite stable though very low”.
